Columns and labels:
Test in all cases: cells
Assay type in all cases: functional, cell-based, Homo sapiens
NB5 = details: Homo sapiens, NB5
Description: SANGER: Inhibition of human NB5 cell growth in a cell viability assay.

L-363 = details: Homo sapiens, L-363
Description: SANGER: Inhibition of human L-363 cell growth in a cell viability assay.

HT-144 = details: Homo sapiens, HT-144
Description: SANGER: Inhibition of human HT-144 cell growth in a cell viability assay.

SNU-5 = details: Homo sapiens, SNU-5
Description: SANGER: Inhibition of human NCI-SNU-5 cell growth in a cell viability assay.

TGW = details: Homo sapiens, TGW
Description: SANGER: Inhibition of human TGW cell growth in a cell viability assay.

NB6 = details: Homo sapiens, NB6
Description: SANGER: Inhibition of human NB6 cell growth in a cell viability assay.

HD-MY-Z = details: Homo sapiens, HD-MY-Z
Description: SANGER: Inhibition of human HD-MY-Z cell growth in a cell viability assay.

NTERA-2-cl-D1 = details: Homo sapiens, NTERA-2-cl-D1
Description: SANGER: Inhibition of human NTERA-S-cl-D1 cell growth in a cell viability assay.

NCI-H526 = details: Homo sapiens, NCI-H526
Description: SANGER: Inhibition of human NCI-H526 cell growth in a cell viability assay.

NCI-H1304 = details: Homo sapiens, NCI-H1304
Description: SANGER: Inhibition of human NCI-H1304 cell growth in a cell viability assay.

ES1 = details: Homo sapiens, ES1
Description: SANGER: Inhibition of human ES1 cell growth in a cell viability assay.

SK-N-DZ = details: Homo sapiens, SK-N-DZ
Description: SANGER: Inhibition of human SK-N-DZ cell growth in a cell viability assay.

SK-UT-1 = details: Homo sapiens, SK-UT-1
Description: SANGER: Inhibition of human SK-UT-1 cell growth in a cell viability assay.

KNS-81-FD = details: Homo sapiens, KNS-81-FD
Description: SANGER: Inhibition of human KNS-81-FD cell growth in a cell viability assay.

EKVX = details: Homo sapiens, EKVX
Description: SANGER: Inhibition of human EKVX cell growth in a cell viability assay.

COR-L88 = details: Homo sapiens, COR-L88
Description: SANGER: Inhibition of human COR-L88 cell growth in a cell viability assay.

MSTO-211H = details: Homo sapiens, MSTO-211H
Description: SANGER: Inhibition of human MSTO-211H cell growth in a cell viability assay.

AM-38 = details: Homo sapiens, AM-38
Description: SANGER: Inhibition of human AM-38 cell growth in a cell viability assay.

OCUB-M = details: Homo sapiens, OCUB-M
Description: SANGER: Inhibition of human OCUB-M cell growth in a cell viability assay.

UACC-257 = details: Homo sapiens, UACC-257
Description: SANGER: Inhibition of human UACC-257 cell growth in a cell viability assay.

SK-N-FI = details: Homo sapiens, SK-N-FI
Description: SANGER: Inhibition of human SK-N-FI cell growth in a cell viability assay.

IA-LM = details: Homo sapiens, IA-LM
Description: SANGER: Inhibition of human IA-LM cell growth in a cell viability assay.

CP66-MEL = details: Homo sapiens, CP66-MEL
Description: SANGER: Inhibition of human CP66-MEL cell growth in a cell viability assay.

LU-139 = details: Homo sapiens, LU-139
Description: SANGER: Inhibition of human LU-139 cell growth in a cell viability assay.

NB69 = details: Homo sapiens, NB69
Description: SANGER: Inhibition of human NB69 cell growth in a cell viability assay.

SW 962 = details: Homo sapiens, SW 962
Description: SANGER: Inhibition of human SW962 cell growth in a cell viability assay.

NCI-H209 = details: Homo sapiens, NCI-H209
Description: SANGER: Inhibition of human NCI-H209 cell growth in a cell viability assay.

NB12 = details: Homo sapiens, NB12
Description: SANGER: Inhibition of human NB12 cell growth in a cell viability assay.

NCI-H69 = details: Homo sapiens, NCI-H69
Description: SANGER: Inhibition of human NCI-H69 cell growth in a cell viability assay.

HEL = details: Homo sapiens, HEL
Description: SANGER: Inhibition of human HEL cell growth in a cell viability assay.

NCI-H747 = details: Homo sapiens, NCI-H747
Description: SANGER: Inhibition of human NCI-H747 cell growth in a cell viability assay.

C8166 = details: Homo sapiens, C8166
Description: SANGER: Inhibition of human C8166 cell growth in a cell viability assay.

TGBC1TKB = details: Homo sapiens, TGBC1TKB
Description: SANGER: Inhibition of human TGBC1TKB cell growth in a cell viability assay.

ATN-1 = details: Homo sapiens, ATN-1
Description: SANGER: Inhibition of human ATN-1 cell growth in a cell viability assay.

MS-1 = details: Homo sapiens, MS-1
Description: SANGER: Inhibition of human MS-1 cell growth in a cell viability assay.

DOHH-2 = details: Homo sapiens, DOHH-2
Description: SANGER: Inhibition of human DOHH-2 cell growth in a cell viability assay.

VA-ES-BJ = details: Homo sapiens, VA-ES-BJ
Description: SANGER: Inhibition of human VA-ES-BJ cell growth in a cell viability assay.

NCI-H1092 = details: Homo sapiens, NCI-H1092
Description: SANGER: Inhibition of human NCI-H1092 cell growth in a cell viability assay.

HCC1187 = details: Homo sapiens, HCC1187
Description: SANGER: Inhibition of human HCC1187 cell growth in a cell viability assay.

GB-1 = details: Homo sapiens, GB-1
Description: SANGER: Inhibition of human GB-1 cell growth in a cell viability assay.

SCC-15 = details: Homo sapiens, SCC-15
Description: SANGER: Inhibition of human SCC-15 cell growth in a cell viability assay.

HCC2157 = details: Homo sapiens, HCC2157
Description: SANGER: Inhibition of human HCC2157 cell growth in a cell viability assay.

IST-MEL1 = details: Homo sapiens, IST-MEL1
Description: SANGER: Inhibition of human IST-MEL1 cell growth in a cell viability assay.

CTV-1 = details: Homo sapiens, CTV-1
Description: SANGER: Inhibition of human CTV-1 cell growth in a cell viability assay.

A3-KAW = details: Homo sapiens, A3-KAW
Description: SANGER: Inhibition of human A3-KAW cell growth in a cell viability assay.

D-247MG = details: Homo sapiens, D-247MG
Description: SANGER: Inhibition of human D-247MG cell growth in a cell viability assay.

HOP-62 = details: Homo sapiens, HOP-62
Description: SANGER: Inhibition of human HOP-62 cell growth in a cell viability assay.

EW-24 = details: Homo sapiens, EW-24
Description: SANGER: Inhibition of human EW-24 cell growth in a cell viability assay.

DMS-79 = details: Homo sapiens, DMS-79
Description: SANGER: Inhibition of human DMS-79 cell growth in a cell viability assay.

## CC(C)CCN1c2nc(Nc3cc(F)c(O)c(F)c3)ncc2N(C)C(=O)C1C (stereo not drawn)
NB5
  IC50: > 5 µM
L-363
  IC50: > 5 µM
HT-144
  IC50: > 5 µM
SNU-5
  IC50: > 5 µM
TGW
  IC50: 1.05 µM
NB6
  IC50: 2.46 µM
HD-MY-Z
  IC50: 3.37 µM
NTERA-2-cl-D1
  IC50: > 5 µM
NCI-H526
  IC50: > 5 µM
NCI-H1304
  IC50: > 5 µM
ES1
  IC50: > 5 µM
SK-N-DZ
  IC50: > 5 µM
SK-UT-1
  IC50: > 5 µM
KNS-81-FD
  IC50: > 5 µM
EKVX
  IC50: > 5 µM
COR-L88
  IC50: > 5 µM
MSTO-211H
  IC50: > 5 µM
AM-38
  IC50: > 5 µM
OCUB-M
  IC50: > 5 µM
UACC-257
  IC50: > 5 µM
SK-N-FI
  IC50: > 5 µM
IA-LM
  IC50: > 5 µM
CP66-MEL
  IC50: > 5 µM
LU-139
  IC50: 850 nM
NB69
  IC50: > 5 µM
SW 962
  IC50: > 5 µM
NCI-H209
  IC50: 768 nM
NB12
  IC50: > 5 µM
NCI-H69
  IC50: 2.72 µM
HEL
  IC50: 2.7 µM
NCI-H747
  IC50: > 5 µM
C8166
  IC50: > 5 µM
TGBC1TKB
  IC50: > 5 µM
ATN-1
  IC50: 4.42 µM
MS-1
  IC50: > 5 µM
DOHH-2
  IC50: > 5 µM
VA-ES-BJ
  IC50: > 5 µM
NCI-H1092
  IC50: > 5 µM
HCC1187
  IC50: > 5 µM
GB-1
  IC50: > 5 µM
SCC-15
  IC50: > 5 µM
HCC2157
  IC50: > 5 µM
IST-MEL1
  IC50: > 5 µM
CTV-1
  IC50: 479 nM
A3-KAW
  IC50: 1.63 µM
D-247MG
  IC50: > 5 µM
HOP-62
  IC50: 4.31 µM

## COc1cc2ncn(-c3cc(OCc4ccccc4S(C)(=O)=O)c(C#N)s3)c2cc1OC [GSK-319347A]
NB5
  IC50: > 5 µM
L-363
  IC50: > 5 µM
HT-144
  IC50: > 5 µM
SNU-5
  IC50: > 5 µM
TGW
  IC50: > 5 µM
NB6
  IC50: > 5 µM
HD-MY-Z
  IC50: > 5 µM
NTERA-2-cl-D1
  IC50: > 5 µM
NCI-H526
  IC50: > 5 µM
NCI-H1304
  IC50: > 5 µM
ES1
  IC50: > 5 µM
SK-N-DZ
  IC50: > 5 µM
SK-UT-1
  IC50: > 5 µM
KNS-81-FD
  IC50: > 5 µM
EKVX
  IC50: > 5 µM
COR-L88
  IC50: > 5 µM
MSTO-211H
  IC50: > 5 µM
EW-24
  IC50: > 5 µM
AM-38
  IC50: > 5 µM
OCUB-M
  IC50: > 5 µM
UACC-257
  IC50: > 5 µM
SK-N-FI
  IC50: > 5 µM
CP66-MEL
  IC50: > 5 µM
LU-139
  IC50: > 5000 nM
NB69
  IC50: > 5 µM
SW 962
  IC50: > 5 µM
NCI-H209
  IC50: > 5000 nM
NB12
  IC50: > 5 µM
NCI-H69
  IC50: > 5 µM
HEL
  IC50: > 5 µM
NCI-H747
  IC50: > 5 µM
C8166
  IC50: > 5 µM
TGBC1TKB
  IC50: > 5 µM
ATN-1
  IC50: > 5 µM
MS-1
  IC50: > 5 µM
DOHH-2
  IC50: > 5 µM
VA-ES-BJ
  IC50: > 5 µM
NCI-H1092
  IC50: > 5 µM
HCC1187
  IC50: > 5 µM
GB-1
  IC50: > 5 µM
SCC-15
  IC50: > 5 µM
HCC2157
  IC50: > 5 µM
IST-MEL1
  IC50: > 5 µM
CTV-1
  IC50: > 5000 nM
A3-KAW
  IC50: > 5 µM
D-247MG
  IC50: > 5 µM
HOP-62
  IC50: > 5 µM
DMS-79
  IC50: > 5 µM

## CC[C@H](CO)Nc1nc(NCc2ccccc2)c2ncn(C(C)C)c2n1 [SELICICLIB]
NB5
  IC50: > 16 µM
L-363
  IC50: > 16 µM
HT-144
  IC50: > 16 µM
SNU-5
  IC50: > 16 µM
TGW
  IC50: > 16 µM
NB6
  IC50: > 16 µM
HD-MY-Z
  IC50: > 16 µM
NTERA-2-cl-D1
  IC50: > 16 µM
NCI-H526
  IC50: > 16 µM
NCI-H1304
  IC50: > 16 µM
ES1
  IC50: > 16 µM
SK-N-DZ
  IC50: > 16 µM
SK-UT-1
  IC50: 10.3 µM
KNS-81-FD
  IC50: > 16 µM
EKVX
  IC50: > 16 µM
COR-L88
  IC50: > 16 µM
MSTO-211H
  IC50: > 16 µM
EW-24
  IC50: > 16 µM
AM-38
  IC50: > 16 µM
OCUB-M
  IC50: > 16 µM
UACC-257
  IC50: > 16 µM
SK-N-FI
  IC50: > 16 µM
CP66-MEL
  IC50: > 16 µM
LU-139
  IC50: > 16000 nM
NB69
  IC50: > 16 µM
SW 962
  IC50: > 16 µM
NCI-H209
  IC50: > 16000 nM
NB12
  IC50: > 16 µM
NCI-H69
  IC50: > 16 µM
HEL
  IC50: > 16 µM
NCI-H747
  IC50: > 16 µM
C8166
  IC50: > 16 µM
TGBC1TKB
  IC50: > 16 µM
ATN-1
  IC50: > 16 µM
MS-1
  IC50: > 16 µM
DOHH-2
  IC50: > 16 µM
VA-ES-BJ
  IC50: > 16 µM
NCI-H1092
  IC50: > 16 µM
HCC1187
  IC50: > 16 µM
GB-1
  IC50: > 16 µM
SCC-15
  IC50: > 16 µM
HCC2157
  IC50: > 16 µM
IST-MEL1
  IC50: > 16 µM
CTV-1
  IC50: > 16000 nM
A3-KAW
  IC50: 5.76 µM
D-247MG
  IC50: 12.4 µM
HOP-62
  IC50: > 16 µM
DMS-79
  IC50: > 16 µM
